In patent US20250262226A1, “COMBINATIONS OF VITAMIN D3, NIACINAMIDE AND LIPOIC ACID FOR USE IN THE MAINTENANCE OF HEALTHY BLOOD GLUCOSE LEVELS” (priority 2022, published 2025):

Test system: L6 muscle cells
Experiment: Insulin-stimulated glucose uptake (2-NBDG) in L6 muscle cells
Assay type: cell-based
Settings: for glucose uptake relative to control cells: insulin stimulated, FIG. 5, V 500 IU, N 15 mg/ml, LA 0.5 mM; for increase in glucose uptake after insulin pulse over control cells: 100 nM insulin, FIG. 4
Description: The effect of each of vitamin D3, niacinamide and lipoic acid separately, and the fixed dose combination of vitamin D3, niacinamide and lipoic acid composition provided herein, were evaluated for the ability of each to have an effect on glucose uptake in an in vitro model. A goal was to improve insulin's ability to increase the uptake of glucose by L6 muscle cells.
Vitamin D3 was utilized to increase GLUT4 levels since this vitamin has been shown before to increase GLUT4 levels in muscle, and niacinamide was used to increase cellular NAD levels (El-Fakhri et al., Horm Res Paediact 81:363-378 (2014); Manna et al., J Biol Chem 287 (50): 42324-42332 (2012); Garten, Endocrinologist, Issue 135 (2020); and Fan et al., J Diabetes Investig. 11 (6): 1403-1419 (2020)). Glucose uptake studies using L6 cells were performed. L6 cells (ATCC CLR-1458; Rockville, MD) were maintained in Dulbecco's modified Eagle's medium (DMEM) supplemented with 10% Fetal Bovine Serum (FBS) and 100 μg/mL penicillin and streptomycin, at 37° C. in an atmosphere of 5% CO2. 2-(N-[7-nitrobenz-2-oxa-1, 3-diazol-4-yl]amino)-2-deoxyglucose (2-NBDG) (Molecular Probes-Invitrogen, CA, USA) was used to assess glucose uptake in the L6 cells. The cells were kept in glucose free medium for half an hour before insulin stimulation. The cells were then stimulated with 100 nM insulin for 10 and 20 min and incubated with 10 μM of 2-NBDG for 15 min. The reaction was stopped by washing with cold PBS three times and the cells were lysed using 0.1% Triton X. The lysate was then used to read florescence at […]. The data is reported in FIG. 4 as percent of control cells (no treatment, incubation with media).
Experiment conducted n=5. Student's t-tests were performed to compare between the present glucose uptake shown by control, vitamin D, niacinamide, and their combination at different time points.
Because the TCA cycle and glucose metabolism in the mitochondria generate oxidative stress, lipoic acid, an antioxidant (Golbidi et al., Front Pharmacol, Vol. 2, Article 69 (2011), 15 pages) which is known to enter the mitochondria, was tested to determine if it could further enhance glucose uptake. The following combinations were tested for improvements in muscle cell glucose uptake stimulated by insulin: Vitamin D3 plus Niacinamide plus or minus Lipoic acid alone.

Molecule: O=C(O)CCCCC1CCSS1 (racemic) [Lipoic acid, DL-alpha-lipoic acid]
- glucose uptake relative to control cells: did not increase glucose uptake

Molecule: NC(=O)c1cccnc1 [niacinamide]
- increase in glucose uptake after insulin pulse over control cells (10 minutes): about 3 fold
- increase in glucose uptake after insulin pulse over control cells (20 minutes): only little

Molecule: C=C1CC[C@H](O)C/C1=C/C=C1\CCC[C@]2(C)[C@@H]([C@H](C)CCCC(C)C)CC[C@@H]12 [vitamin D3, cholecalciferol]
- increase in glucose uptake after insulin pulse over control cells (10 minutes): about 6 fold
- increase in glucose uptake after insulin pulse over control cells (20 minutes): less so

Molecule: Vitamin E
- glucose uptake relative to control cells: had no effect
